Measurements published in patent US4180658A, “7[-2-Alkoxyamino(acetamido)]cephalosporin derivatives” (Bristol-Myers Company, priority 1978, dated 1979).
Converted amounts (≈) assume the structure as drawn. Read-outs that look alike come from different tables or passages of the source.

How the values were obtained:
S. pneumoniae = assay: Antibiotic Activity in Nutrient Broth (MIC); format: cell-based; conditions: Streptococcus pneumoniae, 10^-3 dilution of overnight broth culture, 45% AAB + 5% serum + 50% broth
Procedure: (§1) Biological testing was performed according to the procedures described by F. Leitner et al., Antimicrobial Agents and Chemotherapy 10(3), 426-435 (September, 1976).
(§2) Antibiotic Activity in Nutrient Broth
(§3) *45% AAB + 5% serum + 50% broth listed above.
(§4) **Dilution of overnight broth culture.

Str. pyogenes = assay: Antibiotic Activity in Nutrient Broth (MIC); format: cell-based; conditions: Streptococcus pyogenes, 10^-3 dilution, 45% AAB + 5% serum + 50% broth
Procedure: as §1, §2, §3, §4

E. coli Juhl = assay: Antibiotic Activity in Nutrient Broth (MIC); format: cell-based; conditions: Escherichia coli, 10^-4 dilution
Procedure: as §1, §2, §4

Ent. cloacae = assay: Antibiotic Activity in Nutrient Broth (MIC); format: cell-based
Procedure: as §1, §2, §4

K. pneumoniae = assay: Antibiotic Activity in Nutrient Broth (MIC); format: cell-based; conditions: 10^-4 dilution
Procedure: as §1, §2, §4

Pr. mirabilis = assay: Antibiotic Activity in Nutrient Broth (MIC); format: cell-based
Procedure: as §1, §2, §4

Pr. morganii = assay: Antibiotic Activity in Nutrient Broth (MIC); format: cell-based; conditions: Morganella morganii, 10^-4 dilution
Procedure: as §1, §2, §4

Pr. rettgeri = assay: Antibiotic Activity in Nutrient Broth (MIC); format: cell-based; conditions: Providencia rettgeri, Table 1, 10^-4 dilution
Procedure: as §1, §2, §4

Pr. vulgaris = assay: Antibiotic Activity in Nutrient Broth (MIC); format: cell-based; conditions: Proteus vulgaris, Table 1, 10^-4 dilution
Procedure: as §1, §2, §4

Ps. aeruginosa carb. = assay: Antibiotic Activity in Nutrient Broth (MIC); format: cell-based; conditions: Pseudomonas aeruginosa, Table 1, 10^-4 dilution
Procedure: as §1, §2, §4

Ps. aeruginosa = assay: Antibiotic Activity in Nutrient Broth (MIC); format: cell-based; conditions: 10^-4 dilution
Procedure: as §1, §2, §4

S. aureus BX1633 = assay: Antibiotic Activity in Nutrient Broth (MIC); format: cell-based; conditions: Staphylococcus aureus
Procedure: as §1, §2, §4

S. aureus Meth-Res = assay: Antibiotic Activity in Nutrient Broth (MIC); format: cell-based; conditions: Staphylococcus aureus, 10^-3 dilution
Procedure: as §1, §2, §4

S. aureus Smith = assay: Antibiotic Activity in Nutrient Broth (MIC); format: cell-based; conditions: Staphylococcus aureus, 10^-4 dilution
Procedure: as §1, §2, §4

Sal. enteritidis = assay: Antibiotic Activity in Nutrient Broth (MIC); format: cell-based; conditions: Salmonella enterica, Table 1, 10^-4 dilution
Procedure: as §1, §2, §4

Ser. marcescens = assay: Antibiotic Activity in Nutrient Broth (MIC); format: cell-based
Procedure: as §1, §2, §4

Str. faecalis = assay: Antibiotic Activity in Nutrient Broth (MIC); format: cell-based; conditions: Enterococcus faecalis, Table 1, 10^-4 dilution
Procedure: as §1, §2, §4

Enterobacter species = assay: Secondary in vitro Screening (MIC); format: cell-based; conditions: Table 2
Procedure: as §1

Klebsiella pneumoniae = assay: Secondary in vitro Screening (MIC); format: cell-based; conditions: Table 2, each line another isolate
Procedure: as §1

Pseudomonas aeruginosa = assay: Secondary in vitro Screening (MIC); format: cell-based; conditions: Table 2, each line another isolate
Procedure: as §1

Staphylococcus aureus = assay: Secondary in vitro Screening (MIC); format: cell-based; conditions: Table 2, each line another isolate
Procedure: as §1

Mouse Blood Levels = format: in vivo; conditions: im, 40 mg/kg, IM 40 mgm./kg., phosphate buffer; for concentration at 0.25 h: 0.25 hours after administration; for concentration at 0.5 h: 0.5 hours after administration; for concentration at 1 h: 1 hour after administration; for concentration at 1.5 h: 1.5 hours after administration
Procedure: as §1
*Each group consisted of 6 animals and one blood sample was taken from
(§5) Compounds prepared in phosphate buffer and dosed IM at 40 mgm./kg.
Assay Organism: B. subtilis at pH 6.0

[1] = Solubility (dosing preparation in phosphate buffer); format: physicochemical; conditions: compounds prepared in phosphate buffer for dosing
From the text: as §5

S. aureus = assay: Antibiotic Activity in Nutrient Broth + 50% serum (MIC); format: cell-based; conditions: Staphylococcus aureus, Table 1, 10^-4 dilution
Procedure: as §1, §2, §4

Haemophilus influenzae = assay: Secondary in vitro Screening (MIC); format: cell-based; conditions: Table 3, each line another isolate
Procedure: as §1

[2] = Table 1, second pair of columns
[3] = Enterobacter cloacae, Table 1, 10^-4 dilution, read-out: MIC
[4] = Klebsiella pneumoniae, Table 1, first pair of columns, read-out: MIC
[5] = Proteus mirabilis, Table 1, 10^-4 dilution, read-out: MIC
[6] = Table 1, second pair of columns, 10^-4 dilution
[7] = Pseudomonas aeruginosa, Table 1, first pair of columns, read-out: MIC
[8] = BX1633, Table 1, 10^-2 dilution
[9] = BX1633, Table 1, 10^-3 dilution
[10] = BX1633, Table 1, second pair of columns, 10^-2 dilution
[11] = Serratia marcescens, Table 1, 10^-4 dilution, read-out: MIC
[12] = first pair of lines (Example 1B susp.)
[13] = second pair of lines (Example 1B sol.)

Which results are given for `CO/N=C(\C(=O)N[C@@H]1C(=O)N2C(C(=O)O)=C(COC(N)=O)CS[C@H]12)c1ccco1` [Cefuroxime, sodium 6R,7R3-carbamoyloxymethyl-7-(2Z)-2-methoxyimino(fur-2-yl)acetamidoceph-3-m-4-carboxylate, reference compound]?
MIC (S. pneumoniae; Table 1, first pair of columns): 0.004 µg/mL; MIC (S. pneumoniae; [2]): 0.004 µg/mL; MIC (Str. pyogenes; Table 1, first pair of columns): 0.004 µg/mL; MIC (Str. pyogenes; [2]): 0.004 µg/mL; MIC (E. coli Juhl; Table 1, first pair of columns): 4 µg/mL; MIC (E. coli Juhl; [2]): 8 µg/mL; MIC (Ent. cloacae; [3]): > 125 µg/mL; MIC (K. pneumoniae; [4]): 2 µg/mL; MIC (Pr. mirabilis; [5]): 0.5 µg/mL; MIC (Pr. mirabilis; [6]): 0.5 µg/mL; MIC (Pr. morganii; Table 1, first pair of columns): 32 µg/mL; MIC (Pr. morganii; [2]): 63 µg/mL; MIC (Pr. rettgeri): 16 µg/mL; MIC (Pr. vulgaris): 1 µg/mL; MIC (Ps. aeruginosa carb.): > 1000 µg/mL; MIC (Ps. aeruginosa; [7]): > 125 µg/mL; MIC (S. aureus BX1633; [8]): 0.5 µg/mL; MIC (S. aureus BX1633; [9]): 0.5 µg/mL; MIC (S. aureus BX1633; [10]): 2 µg/mL; MIC (S. aureus Meth-Res; Table 1, first pair of columns): 2 µg/mL; MIC (S. aureus Meth-Res; [2]): > 125 µg/mL; MIC (S. aureus Smith; Table 1, first pair of columns): 0.13 µg/mL; MIC (S. aureus Smith; [2]): 0.5 µg/mL; MIC (Sal. enteritidis): 0.5 µg/mL; MIC (Ser. marcescens; [11]): > 125 µg/mL; MIC (Ser. marcescens; [6]): > 125 µg/mL; MIC (Str. faecalis): > 125 µg/mL; MIC (Enterobacter species): 2 µg/mL; MIC (Klebsiella pneumoniae): 2 µg/mL; MIC (Pseudomonas aeruginosa): 125 µg/mL; MIC (Staphylococcus aureus): 0.5 µg/mL; concentration at 0.25 h (Mouse Blood Levels; [12]): 34500 ng/mL; concentration at 0.25 h (Mouse Blood Levels; [13]): 25600 ng/mL; concentration at 0.5 h (Mouse Blood Levels; [12]): 26300 ng/mL; concentration at 0.5 h (Mouse Blood Levels; [13]): 20600 ng/mL; concentration at 1 h (Mouse Blood Levels; [12]): 7600 ng/mL; concentration at 1 h (Mouse Blood Levels; [13]): 6000 ng/mL; concentration at 1.5 h (Mouse Blood Levels; [12]): 3100 ng/mL; concentration at 1.5 h (Mouse Blood Levels; [13]): 2100 ng/mL; Solubility [1]: sol.

Which MIC (S. pneumoniae; Table 1, first pair of columns) does the source give for `CO/N=C(\C(=O)N[C@@H]1C(=O)N2C(C(=O)O)=C(CSc3nnnn3CCN)CS[C@H]12)c1ccco1` [Example 1B, 7-(α-Methoxyiminofurylacetamido)-3-(1-[2'-aminoethyl]-tetrazol-5-ylthiomethyl)-3-cephem-4-carboxylic Acid] here?
The MIC was 0.008 µg/mL.

What about the MIC (S. pneumoniae; [2]) of the same molecule?
The MIC was 0.004 µg/mL.

What about the MIC (Str. pyogenes; Table 1, first pair of columns) of the same molecule?
The MIC was 0.008 µg/mL.

What about the MIC (Str. pyogenes; [2]) of the same molecule?
The MIC was 0.004 µg/mL.

What about the MIC (E. coli Juhl; Table 1, first pair of columns) of the same molecule?
Its MIC is 8 µg/mL (≈ 15.7 µM).

And the MIC (E. coli Juhl; [2])?
Its MIC is 2 µg/mL (≈ 3.93 µM).

What about the MIC (Ent. cloacae; [3]) of the same molecule?
The MIC was 16 µg/mL (≈ 31.5 µM).

What about the MIC (Ent. cloacae; [6]) of the same molecule?
Its MIC is 8 µg/mL (≈ 15.7 µM).

And the MIC (K. pneumoniae; [4])?
Its MIC is 1 µg/mL (≈ 1.97 µM).

And the MIC (K. pneumoniae; Klebsiella pneumoniae, Table 1, second pair of columns, read-out: MIC)?
Its MIC is 16 µg/mL (≈ 31.5 µM).

And the MIC (K. pneumoniae; Table 1, first pair of columns)?
Its MIC is 2 µg/mL (≈ 3.93 µM).

And the MIC (K. pneumoniae; [2])?
The MIC was 32 µg/mL (≈ 62.9 µM).

What about the MIC (Pr. mirabilis; [5]) of the same molecule?
Its MIC is 0.5 µg/mL (≈ 0.983 µM).

And the MIC (Pr. mirabilis; [6])?
The MIC was 0.5 µg/mL (≈ 0.983 µM).

What about the MIC (Pr. morganii; Table 1, first pair of columns) of the same molecule?
Its MIC is 2 µg/mL (≈ 3.93 µM).

And the MIC (Pr. morganii; [2])?
The MIC was 1 µg/mL (≈ 1.97 µM).

And the MIC (Pr. rettgeri)?
The MIC was 1 µg/mL (≈ 1.97 µM).

What about the MIC (Pr. vulgaris) of the same molecule?
The MIC was 0.5 µg/mL (≈ 0.983 µM).

What about the MIC (Ps. aeruginosa carb.) of the same molecule?
The MIC was 250 µg/mL (≈ 492 µM).

And the MIC (Ps. aeruginosa; [7])?
Its MIC is 125 µg/mL (≈ 246 µM).

And the MIC (Ps. aeruginosa; Pseudomonas aeruginosa, Table 1, second pair of columns, read-out: MIC)?
Its MIC is 63 µg/mL (≈ 124 µM).

What about the MIC (Ps. aeruginosa; [2]) of the same molecule?
Its MIC is 125 µg/mL (≈ 246 µM).

And the MIC (S. aureus BX1633; [8])?
The MIC was 1 µg/mL (≈ 1.97 µM).

And the MIC (S. aureus BX1633; [9])?
The MIC was 0.5 µg/mL (≈ 0.983 µM).

And the MIC (S. aureus BX1633; [10])?
The MIC was 0.5 µg/mL (≈ 0.983 µM).

What about the MIC (S. aureus Meth-Res; Table 1, first pair of columns) of the same molecule?
The MIC was 2 µg/mL (≈ 3.93 µM).

And the MIC (S. aureus Meth-Res; [2])?
Its MIC is > 125 µg/mL.

What about the MIC (S. aureus Smith; Table 1, first pair of columns) of the same molecule?
Its MIC is 0.5 µg/mL (≈ 0.983 µM).

What about the MIC (S. aureus Smith; [2]) of the same molecule?
Its MIC is 0.5 µg/mL (≈ 0.983 µM).

And the MIC (Sal. enteritidis)?
The MIC was ≤ 0.25 µg/mL.

And the MIC (Ser. marcescens; [11])?
Its MIC is 8 µg/mL (≈ 15.7 µM).

And the MIC (Ser. marcescens; [6])?
The MIC was 8 µg/mL (≈ 15.7 µM).

What about the MIC (Str. faecalis) of the same molecule?
The MIC was 63 µg/mL (≈ 124 µM).

And the MIC (S. aureus)?
Its MIC is 1 µg/mL.

What about the MIC (Enterobacter species) of the same molecule?
Its MIC is 2 µg/mL (≈ 3.93 µM).

What about the MIC (Haemophilus influenzae) of the same molecule?
Its MIC is 0.5 µg/mL (≈ 0.983 µM).

What about the MIC (Klebsiella pneumoniae) of the same molecule?
The MIC was 2 µg/mL (≈ 3.93 µM).

What about the MIC (Pseudomonas aeruginosa) of the same molecule?
Its MIC is > 63 µg/mL.

And the concentration at 0.25 h (Mouse Blood Levels; [12])?
The concentration at 0.25 h was 35000 ng/mL.

And the concentration at 0.25 h (Mouse Blood Levels; [13])?
The concentration at 0.25 h was 33600 ng/mL.

What about the concentration at 0.5 h (Mouse Blood Levels; [12]) of the same molecule?
The concentration at 0.5 h was 17900 ng/mL.

What about the concentration at 0.5 h (Mouse Blood Levels; [13]) of the same molecule?
The concentration at 0.5 h was 17400 ng/mL.

What about the concentration at 1 h (Mouse Blood Levels; [12]) of the same molecule?
Its concentration at 1 h is 5400 ng/mL.

And the concentration at 1 h (Mouse Blood Levels; [13])?
The concentration at 1 h was 3900 ng/mL.

What about the concentration at 1.5 h (Mouse Blood Levels; [12]) of the same molecule?
The concentration at 1.5 h was < 2500 ng/mL.

And the concentration at 1.5 h (Mouse Blood Levels; [13])?
The concentration at 1.5 h was < 2600 ng/mL.

And the Solubility [1]?
The Solubility was “susp. and sol”.
